Measured values from US20260262643A1, “HERBICIDAL BENZOXAZINES” (FMC CORPORATION, priority 2022, published 2026).

Legend:
[1] = tested on: barnyardgrass; test: Test C postemergence; format: in vivo, Echinochloa crusgalli
From the text: (§1) Seeds of plant species selected from barnyardgrass (Echinochloa crusgalli), blackgrass (Alopecurus myosuroides), corn (Zea mays), foxtail, giant (giant foxtail, Setaria faberi), green foxtail (Setaria viridis), goosegrass (Eleusine indica), kochia (Bassia scoparia), oat, wild (wild oat, Avena fatua), pigweed, palmer (palmer amaranth, palmer pigweed, Amaranthus palmeri), Pigweed, Redroot (redroot pigweed, Amaranthus retroflexus), ragweed (common ragweed, Ambrosia artemisiifolia), ryegrass, Italian ([…] ryegrass, Lolium multiflorum), soybean (Glycine max), and wheat (Triticum aestivum) were planted into a blend of loam soil and sand and treated preemergence with a directed soil spray using test chemicals formulated in a non-phytotoxic solvent mixture which included a surfactant. At the same time, plants selected from these crops and weed species and also galium (catchweed bedstraw, Galium aparine) and horseweed (Erigeron canadensis) were planted in pots containing the same blend of loam soil and sand and treated with postemergence applications of test chemicals formulated in the same manner. Plants ranged in height from 2 to 10 cm and were in the one- to two-leaf stage for the postemergence treatment. Treated plants and untreated controls were maintained in a greenhouse for 10 days, after which time all treated plants were compared to untreated controls and visually evaluated for injury. Plant response ratings, summarized in Table C, are based on a 0 to 100 scale where 0 is no effect and 100 is complete control. A dash (-) response means no test result.

[2] = tested on: soybean; test: Test C postemergence; format: in vivo, Glycine max; settings: 10 days
From the text: as §1

[3] = tested on: kochia; test: Test C preemergence; format: in vivo, Bassia scoparia; settings: 0 to 100 scale (0 no effect, 100 complete control); for Plant response rating, Kochia: Preemergence, visual rating after 10 days
From the text: as §1

[4] = tested on: oat, wild; test: Test C preemergence; format: in vivo, Avena fatua; settings: 0 to 100 scale (0 no effect, 100 complete control)
From the text: as §1

[5] = tested on: kochia; test: Test C postemergence; format: in vivo, Bassia scoparia; settings: 10 days
From the text: as §1

[6] = tested on: soybean; test: Test C preemergence; format: in vivo, Glycine max; settings: 0 to 100 scale (0 no effect, 100 complete control)
From the text: as §1

[7] = tested on: ryegrass, Italian; test: Test C postemergence; format: in vivo, Lolium multiflorum; settings: 10 days
From the text: as §1

[8] = tested on: blackgrass; test: Test C preemergence; format: in vivo, Alopecurus myosuroides; settings: 0 to 100 scale (0 no effect, 100 complete control); for Plant response rating, Blackgrass: Preemergence, visual rating after 10 days
From the text: as §1

[9] = tested on: pigweed, palmer; test: Test C postemergence; format: in vivo, Amaranthus palmeri; settings: 10 days
From the text: as §1

[10] = tested on: corn; test: Test C postemergence; format: in vivo, Zea mays; settings: 10 days
From the text: as §1

[11] = tested on: galium; test: Test C postemergence; format: in vivo, Galium aparine; settings: 10 days
From the text: as §1

[12] = tested on: green foxtail; test: Test C preemergence; format: in vivo, Setaria viridis; settings: 0 to 100 scale (0 no effect, 100 complete control); for Plant response rating, Foxtail, Green: Preemergence, visual rating after 10 days
From the text: as §1

[13] = tested on: barnyardgrass; test: Test C preemergence; format: in vivo, Echinochloa crusgalli; settings: 0 to 100 scale (0 no effect, 100 complete control); for Plant response rating, Barnyardgrass: Preemergence, visual rating after 10 days
From the text: as §1

[14] = tested on: oat, wild; test: Test C postemergence; format: in vivo, Avena fatua; settings: 10 days
From the text: as §1

[15] = tested on: horseweed; test: Test C postemergence; format: in vivo, Erigeron canadensis; settings: 10 days
From the text: as §1

[16] = tested on: wheat; test: Test C preemergence; format: in vivo, Triticum aestivum; settings: 0 to 100 scale (0 no effect, 100 complete control)
From the text: as §1

[17] = tested on: ragweed; test: Test C preemergence; format: in vivo, Ambrosia artemisiifolia; settings: 0 to 100 scale (0 no effect, 100 complete control); for Plant response rating, Ragweed: Preemergence, visual rating after 10 days
From the text: as §1

[18] = tested on: corn; test: Test C preemergence; format: in vivo, Zea mays; settings: 0 to 100 scale (0 no effect, 100 complete control)
From the text: as §1

[19] = tested on: ryegrass, Italian; test: Test C preemergence; format: in vivo, Lolium multiflorum; settings: 0 to 100 scale (0 no effect, 100 complete control); for Plant response rating, Ryegrass, Italian: Preemergence, visual rating after 10 days
From the text: as §1

[20] = tested on: ragweed; test: Test C postemergence; format: in vivo, Ambrosia artemisiifolia; settings: 10 days
From the text: as §1

[21] = tested on: wheat; test: Test C postemergence; format: in vivo, Triticum aestivum; settings: 10 days
From the text: as §1

[22] = tested on: pigweed, palmer; test: Test C preemergence; format: in vivo, Amaranthus palmeri; settings: 0 to 100 scale (0 no effect, 100 complete control); for Plant response rating, Pigweed, Palmer: Preemergence, visual rating after 10 days
From the text: as §1

[23] = tested on: blackgrass; test: Test C postemergence; format: in vivo, Alopecurus myosuroides; settings: 10 days
From the text: as §1

[24] = tested on: green foxtail; test: Test C postemergence; format: in vivo, Setaria viridis; settings: Postemergence, 1000 g ai/ha, 10 days, visual 0 to 100 scale (0 no effect, 100 complete control)
From the text: as §1

[25] = 125 g ai/ha, postemergence, 0 to 100 scale, 0 no effect, 100 complete control
[26] = Postemergence, 500 g ai/ha, visual 0 to 100 scale (0 no effect, 100 complete control)
[27] = Test C, preemergence, 125 g ai/ha
[28] = Preemergence, 500 g ai/ha, visual rating after 10 days
[29] = Postemergence, 1000 g ai/ha, 0 to 100 scale, 0 no effect, 100 complete control
[30] = Postemergence, 1000 g ai/ha, visual 0 to 100 scale (0 no effect, 100 complete control)

Cc1cccc2c1O[C@@H](C)CN2C(=O)c1cccc(-n2cnc(N(C)C)n2)c1 [Compound 226]
Plant response rating, Barnyardgrass ([1]; 125 g ai/ha, postemergence, 10 days, 0 to 100 scale, 0 no effect, 100 complete control): 50
Plant response rating, Barnyardgrass ([1]; Postemergence, 500 g ai/ha, 10 days, visual 0 to 100 scale (0 no effect, 100 complete control)): 80
Plant response rating, Soybean [2, 25]: 100
Plant response rating, Soybean [2, 26]: 100
Plant response rating, Kochia ([3]; 500 g ai/ha): 90
Kochia plant response rating [3, 27]: 50
Plant response rating, Oat, Wild [4, 28]: 60
Oat, Wild plant response rating [4, 27]: 40
Plant response rating, Kochia [5, 25]: 70
Plant response rating, Kochia [5, 26]: 80
Plant response rating, Soybean [6, 28]: 30
Soybean plant response rating [6, 27]: 20
Plant response rating, Ryegrass, Italian [7, 25]: 50
Plant response rating, Ryegrass, Italian [7, 26]: 90
Plant response rating, Blackgrass ([8]; 500 g ai/ha): 60
Blackgrass plant response rating [8, 27]: 30
Plant response rating, Pigweed, Palmer [9, 25]: 40
Plant response rating, Pigweed, Palmer [9, 26]: 80
Plant response rating, Corn [10, 25]: 20
Plant response rating, Corn [10, 26]: 60
Plant response rating, Galium [11, 25]: 80
Plant response rating, Galium [11, 26]: 100
Plant response rating, Foxtail, Green ([12]; 500 g ai/ha): 100
Foxtail, Green plant response rating [12, 27]: 100
Plant response rating, Barnyardgrass ([13]; 500 g ai/ha): 90
Barnyardgrass plant response rating [13, 27]: 50
Plant response rating, Oat, Wild [14, 25]: 10
Plant response rating, Oat, Wild [14, 26]: 60
Plant response rating, Horseweed [15, 25]: 10
Plant response rating, Horseweed [15, 26]: 30
Plant response rating, Wheat [16, 28]: 10
Wheat plant response rating [16, 27]: 0
Plant response rating, Ragweed ([17]; 500 g ai/ha): 20
Ragweed plant response rating [17, 27]: 20
Plant response rating, Corn [18, 28]: 0
Corn plant response rating [18, 27]: 0
Plant response rating, Ryegrass, Italian ([19]; 500 g ai/ha): 70
Ryegrass, Italian plant response rating [19, 27]: 70
Plant response rating, Ragweed [20, 25]: 30
Plant response rating, Ragweed [20, 26]: 60
Plant response rating, Wheat [21, 25]: 10
Plant response rating, Wheat [21, 26]: 30
Plant response rating, Pigweed, Palmer ([22]; 500 g ai/ha): 90
Pigweed, Palmer plant response rating [22, 27]: 50
Plant response rating, Blackgrass [23, 25]: 60
Plant response rating, Blackgrass [23, 26]: 90

Cc1csc(-c2cccc(C(=O)N3C[C@H](C)Oc4c(C)cccc43)c2)c1 [Compound 245]
Plant response rating, Barnyardgrass [1, 29]: 0
Plant response rating, Foxtail, Green [24]: 0
Plant response rating, Kochia ([3]; 1000 g ai/ha): 0
Plant response rating, Kochia [5, 30]: 0
Plant response rating, Ryegrass, Italian [7, 30]: 0
Plant response rating, Blackgrass ([8]; 1000 g ai/ha): 0
Plant response rating, Pigweed, Palmer [9, 30]: 0
Plant response rating, Galium [11, 30]: 0
Plant response rating, Foxtail, Green ([12]; 1000 g ai/ha): 30
Plant response rating, Barnyardgrass ([13]; 1000 g ai/ha): 20
Plant response rating, Horseweed [15, 30]: 30
Plant response rating, Ryegrass, Italian ([19]; 1000 g ai/ha): 60
Plant response rating, Ragweed [20, 30]: 10
Plant response rating, Pigweed, Palmer ([22]; 1000 g ai/ha): 20
Plant response rating, Blackgrass [23, 30]: 0

Cc1cc(-c2cccc(C(=O)N3C[C@H](C)Oc4c(C)cccc43)c2)cs1 [Compound 246]
Plant response rating, Barnyardgrass [1, 29]: 0
Plant response rating, Foxtail, Green [24]: 0
Plant response rating, Kochia ([3]; 1000 g ai/ha): 0
Plant response rating, Kochia [5, 30]: 20
Plant response rating, Ryegrass, Italian [7, 30]: 0
Plant response rating, Blackgrass ([8]; 1000 g ai/ha): 0
Plant response rating, Pigweed, Palmer [9, 30]: 0
Plant response rating, Galium [11, 30]: 0
Plant response rating, Foxtail, Green ([12]; 1000 g ai/ha): 0
Plant response rating, Barnyardgrass ([13]; 1000 g ai/ha): 0
Plant response rating, Horseweed [15, 30]: 30
Plant response rating, Ryegrass, Italian ([19]; 1000 g ai/ha): 30
Plant response rating, Ragweed [20, 30]: 30
Plant response rating, Pigweed, Palmer ([22]; 1000 g ai/ha): 0
Plant response rating, Blackgrass [23, 30]: 0

Cc1cccc2c1O[C@@H](C)CN2C(=O)c1cccc(-c2cn(C)nn2)c1 [Compound 247]
Plant response rating, Barnyardgrass [1, 29]: 10
Plant response rating, Foxtail, Green [24]: 30
Plant response rating, Kochia ([3]; 1000 g ai/ha): 0
Plant response rating, Kochia [5, 30]: 0
Plant response rating, Ryegrass, Italian [7, 30]: 0
Plant response rating, Blackgrass ([8]; 1000 g ai/ha): 0
Plant response rating, Pigweed, Palmer [9, 30]: 10
Plant response rating, Galium [11, 30]: 20
Plant response rating, Foxtail, Green ([12]; 1000 g ai/ha): 0
Plant response rating, Barnyardgrass ([13]; 1000 g ai/ha): 0
Plant response rating, Horseweed [15, 30]: 20
Plant response rating, Ragweed ([17]; 1000 g ai/ha): 0
Plant response rating, Ryegrass, Italian ([19]; 1000 g ai/ha): 30
Plant response rating, Ragweed [20, 30]: 0
Plant response rating, Blackgrass [23, 30]: 0
